Eleven compounds from ChEMBL document CHEMBL1136822, “Synthesis, antiviral activity and pharmacokinetics of P1/P1' substituted 3-aminoindazole cyclic urea HIV protease inhibitors” (Bioorg Med Chem Lett, 2003) can be followed below.

Each structure is given as a SMILES string. Bounds are passed on as bounds.

Data set [1] is described as follows: Oral bioavailability in dog (dose 10 mg/kg). The settings on record: in vivo. The data set is classed as ADME, organism-based, Canis lupus familiaris.
Data set [2] can be described thus: Half life period in dog. The settings on record: in vivo. It is filed as ADME, organism-based, Canis lupus familiaris.
A further data set is filed under the species Homo sapiens. The data set is described as follows: Protein binding adjusted IC90s for the I84V mutant was determined. The data set is classed as functional.
The subject of data set [3] is Human immunodeficiency virus 1. The data set can be described thus: Resistance factor of compound towards HIV-1 was measured as inhibitory concentration of compound required to inhibit viral RNA transcripts accumulation after infection in cells. The data set is classed as functional.
Data set [4] is described as follows: Effect on increase in RNA IC90 value after HSA (45 mg/mL) and AAG (1 mg/mL) were determined in absence or presence of two plasma proteins (45 mg/mL human serum albumin and 1 mg/mL alpha-1-acid glycoprotein). It is filed as functional.
Data set [5] has as its system Human immunodeficiency virus 1. The data set is described as follows: Inhibitory concentration of compound against HIV abbott mutant virus 25-fold resistant to ritonavir. The data set is classed as functional.
A short description of data set [6]: 8 hour trough Blood level in dog was measured after administration of compound. As to conditions: read-out: C 8 h. The data set is classed as ADME, organism-based, Canis lupus familiaris.
The subject of data set [7] is Human immunodeficiency virus 1. The data set is described as follows: Inhibitory concentration of compound against HIV HXB2 strain. It is filed as functional.
Data set [8] relates to Human immunodeficiency virus 1. The data set can be described thus: Inhibitory concentration of compound against HIV vertex mutant virus 19-fold resistant to […]. The data set is classed as functional.
The subject of data set [9] is MT2. The data set is described as follows: Inhibitory concentration of compound against HIV […] mutant in MT2 cells. It is filed as functional. As to conditions: Homo sapiens.
Data set [10] can be described thus: Pharmacokinetic activity (Cmax) in dog. It is filed as ADME, organism-based, Canis lupus familiaris. As to conditions: in vivo.
For data set [11], the system named is MT2. The data set is described as follows: Inhibitory concentration of compound against HIV V82F/[…] mutant in MT2 cells. It is filed as functional. The settings on record: Homo sapiens.
Data set [12] addresses Human immunodeficiency virus type 1 protease (Human immunodeficiency virus 1, UniProt Q72874). The data set is described as follows: Binding affinity against HIV-Protease was determined.
Data set [13] in a line: Half life period (10 mg/kg) was determined in dog. It is filed as ADME, organism-based, Canis lupus familiaris. As to conditions: in vivo.
The nature of data set [14]: Pharmacokinetic activity (Cmax) (10 mg/kg) was determined in dog. It is filed as ADME, organism-based, Canis lupus familiaris. Details: dose 10 mg/kg. The settings on record: in vivo.
Data set [15] concerns Human immunodeficiency virus 1. The data set can be described thus: Inhibitory concentration of compound against HIV vertex mutant virus 19-fold resistant to amprenavir. The data set is classed as functional.

As usually defined, the bioavailability is dose-corrected exposure relative to a reference, in per cent. A lower bioavailability goes with little systemic uptake. The half-life is the time in which the quantity being followed falls by half. High values mean slow decline, low ones rapid decline. For orientation: IC90 means the concentration needed for an effect of 90%. A higher IC90 goes with a need for much substance. A word on the Cmax: it is the highest concentration seen after dosing. In general, Ki refers to a measure of affinity in units of concentration, obtained from inhibition or displacement. A low value points to higher affinity.

`CCCCN1C(=O)N(Cc2ccc3[nH]nc(N)c3c2)[C@H](Cc2ccccc2)[C@H](O)[C@@H](O)[C@H]1Cc1ccccc1` had a bioavailability in [1] of 57%. The same compound showed a half-life in data set [2] of 7.7 h. Also, the IC90 was determined as 952 nM in the data set filed under Homo sapiens; 56 nM in data set [3]; 1470 nM in data set [5]; 69 nM in [7]; 87 nM in data set [8]; 390 nM in the data set on MT2 [9]. Moreover, the IC90 in the data set with MT2 [11] was determined as 1790 nM. For the same compound, the Fold shift in data set [4] is on record as 17. For the same compound, the concentration at 8 h in data set [6] was found to be 7.2 µM. Moreover, the Cmax in data set [10] came to 11.7 µM. The same compound displayed a Ki in [12] of 0.021 nM.
For `Nc1n[nH]c2ccc(CN3C(=O)N(Cc4ccccc4)[C@H](Cc4ccccc4)[C@H](O)[C@@H](O)[C@H]3Cc3ccccc3)cc12`, in [1], the bioavailability was found to be 60%. Besides, the concentration at 8 h in data set [6] was found to be 2.8 µM. Further, the half-life in data set [13] was 3.5 h. The highest level in data set [10] (Cmax) was 9.6 µM.
The compound `Cc1cccc(C[C@@H]2[C@H](O)[C@@H](O)[C@@H](Cc3cccc(C)c3)N(Cc3ccc4[nH]nc(N)c4c3)C(=O)N2Cc2ccccc2)c1` had a bioavailability in data set [1] of 20%. In data set [2], this compound had a half-life of 3.9 h. The IC90 in the data set listed under Homo sapiens stood at 300 nM; in data set [3] it was 25 nM; in data set [5], 1760 nM; in data set [7], 26 nM; in the data set on MT2 [9] it was 104 nM; in the data set with MT2 [11] it was 2680 nM. Moreover, the Fold shift in data set [4] came out at 12. Moreover, the concentration at 8 h in [6] amounted to 0.35 µM. In addition, the Cmax in data set [14] was 3.6 µM. The compound further showed a Ki in data set [12] of 0.062 nM.
As to `CCCCN1C(=O)N(Cc2ccc3[nH]nc(N)c3c2)[C@H](Cc2ccc(CC)cc2)[C@H](O)[C@@H](O)[C@H]1Cc1ccc(CC)cc1`, the IC90 in the data set filed under Homo sapiens is 220 nM; in data set [3] it was 10 nM; in data set [5] it was 4030 nM; in data set [7], 22 nM; with MT2 [9], 260 nM; with MT2 [11] it was greater than 1800 nM. Moreover, the Fold shift in data set [4] was 22. This compound also gave a Ki in [12] of 0.094 nM.
On to `CCCCN1C(=O)N(Cc2ccc3[nH]nc(N)c3c2)[C@H](Cc2cccc(C)c2)[C@H](O)[C@@H](O)[C@H]1Cc1cccc(C)c1`, for which the IC90 amounted to 775 nM in the data set filed under Homo sapiens; 31 nM in data set [3]; 1600 nM in data set [5]; 54 nM in [7]; 1600 nM in the data set on MT2 [11]. Moreover, the Fold shift in [4] was 25. Besides, affinity in data set [12] was put at a Ki of 0.045 nM.
In the case of `Cc1cc(C)cc(C[C@@H]2[C@H](O)[C@@H](O)[C@@H](Cc3cc(C)cc(C)c3)N(Cc3ccc4[nH]nc(N)c4c3)C(=O)N2Cc2ccccc2)c1`, the 90% effect concentration (IC90) was 350 nM in the data set filed under Homo sapiens, 50 nM in data set [3], greater than 7300 nM in [5] and 100 nM in data set [7]. In addition, the Fold shift in [4] came out at 7. In addition, the Ki in [12] was 0.2 nM.
On to `Nc1[nH]nc2ccc(CN3C(=O)N(Cc4ccccc4)[C@H](Cc4ccccc4)[C@H](O)[C@@H](O)[C@H]3Cc3ccccc3)cc12`, for which the IC90 was determined as 257 nM in data set [15]; 496 nM in the data set filed under Homo sapiens; 62 nM in [3]; 1520 nM in [5]; 92 nM in [7]; 370 nM in the data set on MT2 [9]. The compound also returned an IC90 in the data set on MT2 [11] of 2100 nM.
Consider `CCc1ccc(C[C@@H]2[C@H](O)[C@@H](O)[C@@H](Cc3ccc(CC)cc3)N(Cc3ccc4[nH]nc(N)c4c3)C(=O)N2Cc2ccccc2)cc1`, for which the IC90 in the data set listed under Homo sapiens was 247 nM; in data set [3], 19 nM; in data set [5] it was 12600 nM; in data set [7] it was 81 nM; with MT2 [9], 410 nM; in the data set with MT2 [11], greater than 1600 nM. For the same compound, in [4], the Fold shift worked out at 13. This compound also yielded a Ki in data set [12] of 0.072 nM.
Turning to `CCCCN1C(=O)N(Cc2ccc3[nH]nc(N)c3c2)[C@H](Cc2cc(C)cc(C)c2)[C@H](O)[C@@H](O)[C@H]1Cc1cc(C)cc(C)c1`, the IC90 came out at 66 nM in data set [3], 7540 nM in data set [5] and 56 nM in data set [7]. In addition, the Ki in [12] was determined as 0.19 nM.
`CCCCN1C(=O)N(Cc2ccc3[nH]nc(N)c3c2)[C@H](Cc2ccc(C)cc2)[C@H](O)[C@@H](O)[C@H]1Cc1ccc(C)cc1` returned a bioavailability in data set [1] of 23%. The half-life in data set [2] was 1.6 h. Also, the IC90 in the data set listed under Homo sapiens is 420 nM; in data set [3], 12 nM; in [5] it was 1700 nM; in data set [7] it was 16 nM; in data set [8] it was 7 nM; in the data set with MT2 [11], 1750 nM. Besides, the Fold shift in [4] was 35. The concentration at 8 h in data set [6] amounted to 0.07 µM. Further, the Cmax in data set [10] was found to be 1.2 µM. In [12], this compound registered an inhibitory constant (Ki) of 0.037 nM.
For `Cc1ccc(C[C@@H]2[C@H](O)[C@@H](O)[C@@H](Cc3ccc(C)cc3)N(Cc3ccc4[nH]nc(N)c4c3)C(=O)N2Cc2ccccc2)cc1`, the bioavailability in [1] turned out to be 29%. The 90% effect concentration (IC90) was 192 nM in the data set listed under Homo sapiens; 12 nM in [3]; 1880 nM in [5]; 17 nM in data set [7]; 24 nM in data set [8]; 310 nM with MT2 [9]. In the data set with MT2 [11], this compound came in with an IC90 greater than 1700 nM. In addition, the Fold shift in data set [4] is 16. For the same compound, the concentration at 8 h in data set [6] came to 0.35 µM. In data set [13], this compound showed a half-life of 3.9 h. Moreover, the peak level in data set [14] (Cmax) was 3.6 µM. The Ki in data set [12] stood at 0.047 nM.
